Data as given in the kinase profiling compilation of Christmann-Franck et al. (2016).

Tests used:
Assay in all cases: KINOMEscan competition binding
Conditions in all cases: compound 0.1 µM
ACVRL1 (human) = ACVRL1 (human) (UniProt P37023)
AURKA (human) = AURKA (human) (UniProt O14965)
BRSK1 (human) = BRSK1 (human) (UniProt Q8TDC3)
BUB1 (human) = BUB1 (human) (UniProt O43683)
CDK16 (human) = CDK16 (human) (UniProt Q00536)
CDK8 (human) = CDK8 (human) (UniProt P49336)
CDKL5 (human) = CDKL5 (human) (UniProt O76039)
CIT (human) = CIT (human) (UniProt O14578)
CLK2 (human) = CLK2 (human) (UniProt P49760)
CSNK1G1 (human) = CSNK1G1 (human) (UniProt Q9HCP0)
DSTYK (human) = DSTYK (human) (UniProt Q6XUX3)
[1] = system: EGFR (human), P00533 [L858R]
FGFR3 (human) = FGFR3 (human) (UniProt P22607)
[2] = system: FLT3 (human), P36888 [R834Q]
IRAK4 (human) = IRAK4 (human) (UniProt Q9NWZ3)
[3] = target: JAK1 JH1 catalytic (human) (UniProt P23458)
[4] = target: JAK2 JH1 catalytic (human) (UniProt O60674)
[5] = system: KIT (human), P10721 [V559D/V654A]
MAP2K2 (human) = MAP2K2 (human) (UniProt P36507)
MAP3K1 (human) = MAP3K1 (human) (UniProt Q13233)
MAP3K6 (human) = MAP3K6 (human) (UniProt O95382)
MAPK12 (human) = MAPK12 (human) (UniProt P53778)
MAPK8 (human) = MAPK8 (human) (UniProt P45983)
MERTK (human) = MERTK (human) (UniProt Q12866)
PAK7 (human) = PAK7 (human) (UniProt Q9P286)
[6] = system: PIK3CA (human), P42336 [E545A]
[7] = system: PIK3CA (human), P42336 [H1047Y]
[8] = system: PIK3CA (human), P42336 [Q546K]
PKMYT1 (human) = PKMYT1 (human) (UniProt Q99640)
PTK2B (human) = PTK2B (human) (UniProt Q14289)
RAF1 (human) = RAF1 (human) (UniProt P04049)
RET (human) = RET (human) (UniProt P07949)
RIOK3 (human) = RIOK3 (human) (UniProt O14730)
RIPK4 (human) = RIPK4 (human) (UniProt P57078)
ROS1 (human) = ROS1 (human) (UniProt P08922)
SBK1 (human) = SBK1 (human) (UniProt Q52WX2)
SRPK3 (human) = SRPK3 (human) (UniProt Q9UPE1)
SYK (human) = SYK (human) (UniProt P43405)
ULK2 (human) = ULK2 (human) (UniProt Q8IYT8)
WNK1 (human) = WNK1 (human) (UniProt Q9H4A3)

Chain of PKMYT1 (human) (Q99640 whole entry, looked up): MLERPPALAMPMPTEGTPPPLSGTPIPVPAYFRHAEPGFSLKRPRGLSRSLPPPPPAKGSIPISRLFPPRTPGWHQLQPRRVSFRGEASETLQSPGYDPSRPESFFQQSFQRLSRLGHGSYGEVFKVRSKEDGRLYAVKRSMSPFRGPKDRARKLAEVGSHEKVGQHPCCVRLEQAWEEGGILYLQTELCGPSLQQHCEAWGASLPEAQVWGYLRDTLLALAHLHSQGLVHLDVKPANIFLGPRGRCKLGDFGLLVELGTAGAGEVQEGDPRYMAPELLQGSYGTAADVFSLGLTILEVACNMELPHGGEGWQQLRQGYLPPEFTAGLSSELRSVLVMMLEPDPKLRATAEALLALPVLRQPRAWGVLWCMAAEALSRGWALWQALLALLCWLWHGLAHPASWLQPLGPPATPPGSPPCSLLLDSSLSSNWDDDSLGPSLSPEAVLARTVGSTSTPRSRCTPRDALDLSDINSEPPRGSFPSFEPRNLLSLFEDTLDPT
Chain of CIT (human) (O14578 whole entry, looked up): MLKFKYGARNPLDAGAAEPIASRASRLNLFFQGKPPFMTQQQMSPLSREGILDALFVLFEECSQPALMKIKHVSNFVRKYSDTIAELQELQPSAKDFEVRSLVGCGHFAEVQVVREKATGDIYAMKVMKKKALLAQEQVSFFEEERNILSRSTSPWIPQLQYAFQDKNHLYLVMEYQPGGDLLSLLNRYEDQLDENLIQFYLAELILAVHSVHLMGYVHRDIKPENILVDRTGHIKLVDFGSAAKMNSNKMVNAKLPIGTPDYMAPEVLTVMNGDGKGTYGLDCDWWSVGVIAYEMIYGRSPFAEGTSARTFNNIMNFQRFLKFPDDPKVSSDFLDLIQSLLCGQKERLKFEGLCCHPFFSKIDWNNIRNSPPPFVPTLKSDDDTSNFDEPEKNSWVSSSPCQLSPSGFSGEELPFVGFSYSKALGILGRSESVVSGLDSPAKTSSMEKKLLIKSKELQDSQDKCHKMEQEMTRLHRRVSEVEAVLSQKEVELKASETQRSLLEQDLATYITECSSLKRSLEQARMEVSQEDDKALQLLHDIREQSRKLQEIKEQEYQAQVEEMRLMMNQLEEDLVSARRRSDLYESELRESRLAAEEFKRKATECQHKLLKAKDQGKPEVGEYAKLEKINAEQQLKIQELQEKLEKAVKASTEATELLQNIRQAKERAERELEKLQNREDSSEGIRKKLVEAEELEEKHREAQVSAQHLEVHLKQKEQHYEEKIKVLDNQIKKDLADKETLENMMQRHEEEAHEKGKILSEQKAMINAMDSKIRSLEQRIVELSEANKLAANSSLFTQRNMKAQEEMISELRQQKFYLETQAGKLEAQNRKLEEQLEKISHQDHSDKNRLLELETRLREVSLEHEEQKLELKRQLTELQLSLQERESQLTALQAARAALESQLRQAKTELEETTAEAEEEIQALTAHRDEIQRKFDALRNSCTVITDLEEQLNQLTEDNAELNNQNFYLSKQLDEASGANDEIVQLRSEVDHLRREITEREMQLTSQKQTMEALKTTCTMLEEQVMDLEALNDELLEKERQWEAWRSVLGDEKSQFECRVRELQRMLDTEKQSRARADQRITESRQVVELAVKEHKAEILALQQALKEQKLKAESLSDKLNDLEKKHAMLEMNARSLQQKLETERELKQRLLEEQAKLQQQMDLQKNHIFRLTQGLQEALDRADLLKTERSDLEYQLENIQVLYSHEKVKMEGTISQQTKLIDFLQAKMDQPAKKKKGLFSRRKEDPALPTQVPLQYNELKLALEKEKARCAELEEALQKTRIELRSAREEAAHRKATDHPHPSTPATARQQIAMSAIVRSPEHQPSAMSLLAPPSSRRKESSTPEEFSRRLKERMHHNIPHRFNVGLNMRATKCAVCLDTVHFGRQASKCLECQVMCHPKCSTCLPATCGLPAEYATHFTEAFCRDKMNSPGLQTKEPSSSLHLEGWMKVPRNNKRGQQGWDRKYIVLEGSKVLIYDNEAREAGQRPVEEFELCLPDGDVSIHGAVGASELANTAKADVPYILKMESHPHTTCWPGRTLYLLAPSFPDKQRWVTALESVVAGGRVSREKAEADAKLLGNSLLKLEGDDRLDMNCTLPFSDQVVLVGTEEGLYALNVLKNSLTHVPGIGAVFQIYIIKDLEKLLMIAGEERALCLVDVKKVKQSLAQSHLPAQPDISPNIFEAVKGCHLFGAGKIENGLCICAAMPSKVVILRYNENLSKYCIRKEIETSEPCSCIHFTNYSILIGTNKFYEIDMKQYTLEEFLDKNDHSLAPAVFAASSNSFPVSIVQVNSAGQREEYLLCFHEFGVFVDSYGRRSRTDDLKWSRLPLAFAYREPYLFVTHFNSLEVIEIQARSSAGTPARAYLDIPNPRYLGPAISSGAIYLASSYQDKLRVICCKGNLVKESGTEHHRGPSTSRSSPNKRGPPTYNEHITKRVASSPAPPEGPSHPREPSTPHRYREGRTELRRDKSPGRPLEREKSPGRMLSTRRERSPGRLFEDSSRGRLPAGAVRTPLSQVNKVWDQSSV
Chain of RIPK4 (human) (P57078 whole entry, looked up): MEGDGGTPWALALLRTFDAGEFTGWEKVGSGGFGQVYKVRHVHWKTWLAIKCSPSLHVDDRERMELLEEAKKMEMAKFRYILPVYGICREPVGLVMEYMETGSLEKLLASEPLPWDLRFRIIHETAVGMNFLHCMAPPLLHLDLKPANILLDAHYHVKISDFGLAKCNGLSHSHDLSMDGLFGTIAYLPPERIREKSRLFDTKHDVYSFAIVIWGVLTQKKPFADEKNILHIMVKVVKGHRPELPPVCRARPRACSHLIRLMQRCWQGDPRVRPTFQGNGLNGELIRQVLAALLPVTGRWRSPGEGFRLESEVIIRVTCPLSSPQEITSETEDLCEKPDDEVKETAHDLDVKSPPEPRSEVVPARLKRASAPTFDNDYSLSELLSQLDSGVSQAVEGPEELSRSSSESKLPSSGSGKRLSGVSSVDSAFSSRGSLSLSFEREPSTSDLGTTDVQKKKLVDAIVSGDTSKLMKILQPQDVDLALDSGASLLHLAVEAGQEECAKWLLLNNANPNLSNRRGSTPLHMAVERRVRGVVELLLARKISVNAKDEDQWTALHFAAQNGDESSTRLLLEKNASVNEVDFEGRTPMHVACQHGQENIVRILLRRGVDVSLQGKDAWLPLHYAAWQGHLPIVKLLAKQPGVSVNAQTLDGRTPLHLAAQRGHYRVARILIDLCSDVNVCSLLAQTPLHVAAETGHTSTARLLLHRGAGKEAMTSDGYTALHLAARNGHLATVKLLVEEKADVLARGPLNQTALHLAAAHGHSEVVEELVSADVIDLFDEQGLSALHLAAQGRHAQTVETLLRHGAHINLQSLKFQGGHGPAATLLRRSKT
Chain of PIK3CA (human), P42336 [H1047Y] (P42336 whole entry H1047Y, looked up): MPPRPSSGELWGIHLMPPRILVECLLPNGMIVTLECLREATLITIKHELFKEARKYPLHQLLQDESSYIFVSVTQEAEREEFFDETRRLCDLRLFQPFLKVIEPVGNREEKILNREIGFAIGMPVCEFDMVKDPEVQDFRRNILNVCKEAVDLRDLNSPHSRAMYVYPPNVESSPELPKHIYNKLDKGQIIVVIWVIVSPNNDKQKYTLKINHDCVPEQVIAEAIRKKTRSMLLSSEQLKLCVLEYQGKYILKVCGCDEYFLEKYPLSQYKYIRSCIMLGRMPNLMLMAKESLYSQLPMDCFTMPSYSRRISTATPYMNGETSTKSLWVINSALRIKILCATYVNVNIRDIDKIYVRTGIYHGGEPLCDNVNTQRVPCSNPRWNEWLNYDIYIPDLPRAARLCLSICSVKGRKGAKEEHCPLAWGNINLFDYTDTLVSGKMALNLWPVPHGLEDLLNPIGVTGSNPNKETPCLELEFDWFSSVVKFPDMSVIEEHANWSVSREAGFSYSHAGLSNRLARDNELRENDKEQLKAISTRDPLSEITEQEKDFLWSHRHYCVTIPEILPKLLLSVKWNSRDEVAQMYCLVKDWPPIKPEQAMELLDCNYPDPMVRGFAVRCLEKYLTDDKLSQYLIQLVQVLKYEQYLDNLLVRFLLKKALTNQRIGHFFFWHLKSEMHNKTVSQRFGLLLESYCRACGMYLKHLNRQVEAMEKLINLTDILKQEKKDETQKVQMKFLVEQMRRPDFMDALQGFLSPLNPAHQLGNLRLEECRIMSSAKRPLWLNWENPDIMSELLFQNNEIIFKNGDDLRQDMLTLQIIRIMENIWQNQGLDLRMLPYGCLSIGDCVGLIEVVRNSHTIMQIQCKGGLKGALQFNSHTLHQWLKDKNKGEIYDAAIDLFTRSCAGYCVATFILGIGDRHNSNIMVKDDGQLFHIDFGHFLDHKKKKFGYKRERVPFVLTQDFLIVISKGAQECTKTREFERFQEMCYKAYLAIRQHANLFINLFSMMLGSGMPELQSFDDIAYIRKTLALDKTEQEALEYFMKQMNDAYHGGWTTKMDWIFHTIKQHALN
Chain of AURKA (human) (O14965 whole entry, looked up): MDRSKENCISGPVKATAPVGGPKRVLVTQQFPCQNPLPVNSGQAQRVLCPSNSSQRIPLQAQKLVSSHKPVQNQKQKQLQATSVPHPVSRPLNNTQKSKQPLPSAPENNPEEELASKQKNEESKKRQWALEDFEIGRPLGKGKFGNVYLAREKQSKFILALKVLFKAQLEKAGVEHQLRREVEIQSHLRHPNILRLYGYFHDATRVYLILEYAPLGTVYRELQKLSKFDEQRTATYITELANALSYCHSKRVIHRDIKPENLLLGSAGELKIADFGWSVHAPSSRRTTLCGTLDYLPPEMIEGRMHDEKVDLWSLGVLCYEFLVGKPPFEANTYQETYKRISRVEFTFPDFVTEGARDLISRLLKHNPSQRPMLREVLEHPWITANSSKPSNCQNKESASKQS
Chain of PIK3CA (human), P42336 [E545A] (P42336 whole entry E545A, looked up): as the sequence (P42336 whole entry H1047Y, looked up) above, with E545A, Y1047H counted along it
Chain of PIK3CA (human), P42336 [Q546K] (P42336 whole entry Q546K, looked up): as the sequence (P42336 whole entry H1047Y, looked up) above, with Q546K, Y1047H counted along it

## CCc1ccc(C(=O)Nc2cc(CN3CCN(C)CC3)cc(C(F)(F)F)c2)cc1C#Cc1cnc2ccnn2c1
ACVRL1 (human)
  kinase still bound, per cent of control: 100%
AURKA (human)
  kinase still bound, per cent of control: 100%
BRSK1 (human)
  kinase still bound, per cent of control: 100%
BUB1 (human)
  kinase still bound, per cent of control: 100%
CDK16 (human)
  kinase still bound, per cent of control: 100%
CDK8 (human)
  kinase still bound, per cent of control: 76%
CDKL5 (human)
  kinase still bound, per cent of control: 100%
CIT (human)
  kinase still bound, per cent of control: 92%
CLK2 (human)
  kinase still bound, per cent of control: 85%
CSNK1G1 (human)
  kinase still bound, per cent of control: 85%
DSTYK (human)
  kinase still bound, per cent of control: 100%
[1]
  kinase still bound, per cent of control: 100%
FGFR3 (human)
  kinase still bound, per cent of control: 100%
[2]
  kinase still bound, per cent of control: 100%
IRAK4 (human)
  kinase still bound, per cent of control: 100%
[3]
  kinase still bound, per cent of control: 100%
[4]
  kinase still bound, per cent of control: 100%
[5]
  kinase still bound, per cent of control: 100%
MAP2K2 (human)
  kinase still bound, per cent of control: 100%
MAP3K1 (human)
  kinase still bound, per cent of control: 100%
MAP3K6 (human)
  kinase still bound, per cent of control: 100%
MAPK12 (human)
  kinase still bound, per cent of control: 72%
MAPK8 (human)
  kinase still bound, per cent of control: 100%
MERTK (human)
  kinase still bound, per cent of control: 52%
PAK7 (human)
  kinase still bound, per cent of control: 85%
[6]
  kinase still bound, per cent of control: 100%
[7]
  kinase still bound, per cent of control: 76%
[8]
  kinase still bound, per cent of control: 100%
PKMYT1 (human)
  kinase still bound, per cent of control: 100%
PTK2B (human)
  kinase still bound, per cent of control: 90%
RAF1 (human)
  kinase still bound, per cent of control: 57%
RET (human)
  kinase still bound, per cent of control: 52%
RIOK3 (human)
  kinase still bound, per cent of control: 64%
RIPK4 (human)
  kinase still bound, per cent of control: 100%
ROS1 (human)
  kinase still bound, per cent of control: 78%
SBK1 (human)
  kinase still bound, per cent of control: 73%
SRPK3 (human)
  kinase still bound, per cent of control: 92%
SYK (human)
  kinase still bound, per cent of control: 83%
ULK2 (human)
  kinase still bound, per cent of control: 86%
WNK1 (human)
  kinase still bound, per cent of control: 100%
